Test results: ChEMBL document CHEMBL2034901, “Novel 3,6,7-substituted pyrazolopyrimidines as positive allosteric modulators for the hydroxycarboxylic acid receptor 2 (GPR109A)” (J Med Chem, 2012)

Key:
[1] = molecular target: Hydroxycarboxylic acid receptor 2 (Homo sapiens) (UniProt Q8TDS4); assay: Positive allosteric activity at GPR109A in human HEK cells assessed as shift in EC50 of nicotinic acid at 1 uM pretreated for 30 mins measured after 90 mins by [35S]-GTPgammaS binding assay; type: functional, cell-based; conditions: HEK293
[2] = molecular target: Hydroxycarboxylic acid receptor 2 (Homo sapiens) (UniProt Q8TDS4); assay: Positive allosteric activity at GPR109A in human HEK cells assessed as shift in EC50 of nicotinic acid at 3 uM pretreated for 30 mins measured after 90 mins by [35S]-GTPgammaS binding assay; type: functional, cell-based; conditions: HEK293

Chain of Hydroxycarboxylic acid receptor 2 (Homo sapiens) (Q8TDS4 whole entry): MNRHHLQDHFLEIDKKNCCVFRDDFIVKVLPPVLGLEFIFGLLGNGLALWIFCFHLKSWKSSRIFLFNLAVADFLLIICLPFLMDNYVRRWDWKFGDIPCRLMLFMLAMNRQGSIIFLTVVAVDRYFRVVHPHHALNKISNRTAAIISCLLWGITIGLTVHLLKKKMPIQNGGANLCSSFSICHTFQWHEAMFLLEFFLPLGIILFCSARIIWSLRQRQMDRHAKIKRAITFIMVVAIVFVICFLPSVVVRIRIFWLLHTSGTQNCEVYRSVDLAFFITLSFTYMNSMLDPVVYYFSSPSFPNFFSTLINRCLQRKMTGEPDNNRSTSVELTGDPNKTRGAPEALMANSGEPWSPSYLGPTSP

Row | Emax [1] [%] | Emax [2] [%] | SMILES
1 | 111 | 123 | Cc1c(C(=O)NCCOc2ccccc2)cnc2c(-c3ccc(OC(C)C)cc3)cnn12
2 | 122 | 129 | CCc1c(C(=O)NCCOc2ccccc2)cnc2c(-c3ccc(C(C)C)cc3)cnn12
3 | – | 114 | Cc1c(C(=O)NCCOc2ccccc2)cnc2c(-c3ccc(Cl)c(Cl)c3)cnn12
4 | 120 | 129 | Cc1c(C(=O)NCCNc2ccccc2)cnc2c(-c3ccc(C(C)C)cc3)cnn12
